Laboratory results published in patent US12122761B2, “2-azaspiro[3.4]octane derivatives as M4 agonists” (NOVARTIS AG, priority 2019, dated 2024).
pEC50: −log10 of the molar value. Where two headings read alike, the source gives them in different places.

Experiments:
[1] = molecular target: T1, human cloned CHRM4 receptor (M4_CHO cells) (Homo sapiens, UniProt P08173); experiment: CHRM4 Ca++ Flux Assay (agonist mode, FDSS 7000EX); assay type: cell-based; details: for pEC50: geometric mean if tested more than once, read-out: M4 FDSS EC50
T1 construct: expressed in transfected cells; host or cells: CHO-K1
T1 sequence (P08173 1-479): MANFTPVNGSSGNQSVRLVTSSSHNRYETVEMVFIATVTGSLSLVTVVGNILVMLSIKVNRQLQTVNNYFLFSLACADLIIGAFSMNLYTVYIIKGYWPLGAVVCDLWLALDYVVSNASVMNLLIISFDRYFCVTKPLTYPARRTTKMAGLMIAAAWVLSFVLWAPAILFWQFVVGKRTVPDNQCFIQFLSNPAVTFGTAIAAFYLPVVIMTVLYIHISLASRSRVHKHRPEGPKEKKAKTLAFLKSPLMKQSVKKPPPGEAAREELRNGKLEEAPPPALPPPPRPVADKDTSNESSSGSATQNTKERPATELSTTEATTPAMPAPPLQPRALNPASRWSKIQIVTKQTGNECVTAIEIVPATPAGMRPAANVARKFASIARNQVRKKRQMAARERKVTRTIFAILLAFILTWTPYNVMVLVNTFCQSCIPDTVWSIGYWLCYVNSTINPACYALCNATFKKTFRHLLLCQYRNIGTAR
Protocol: (§1) The above examples were characterized by measuring the intracellular mobilization of Ca++ ions caused by signaling events mediated by the receptor. The Intra-cellular Calcium flux levels were captured by the highly sensitive Ca++ indicator, Calcium Assay Kit (BD Biosciences, Catalog Number 640178). The fluorescent activity from all receptors were monitored by the fluorescent imager, FDSS 7000EX (Hamamatsu) over a span of 3 minutes.
CHO-K1 cells stably expressing the human cloned CHRM4 receptor (M4_CHO cells) were grown and maintained in a monolayer culture with F12/HAM (Life Technologies) supplemented with 10% Fetal Bovine Serum, 1× Pen-Strep, and 0.4 mg/mL Geneticin in a humidified atmosphere (5% CO2) at 37° C. The cultures were grown to 80-90% confluency in T150 flasks (Corning) and washed with 1×DPBS then lifted with 0.05% Trypsin (Life Technologies). The cells were harvested in growth media then spun (1K rpm, 3 minutes) and cryopreserved using Recovery Cell Culture Freezing Media (Gibco Technologies). Cells were stored in liquid nitrogen and thawed a day before the assay.
Prior to the day of the assay, stable M4_CHO cells were thawed and plated on 384 well black walled clear bottom TC treated plates (Greiner Cat #781091) at 12K cells/well using F12/HAM Media supplemented with 10% FBS (Life Technologies) and kept overnight in a humidified atmosphere (5% CO2) at 37° C. The next day, cells were loaded with […] Ca^++ dye (BD Biosciences) using Loading Buffer (HBSS +Ca/+Mg, 20 mM HEPES, 2.5 mM Probenecid) and placed back in cell incubator for a minimum of 1 hour. After incubation, the dye was replaced with 45 μL Assay Buffer (HBSS −Ca/−Mg, 20 mM HEPES, 2.5 mM Probenecid) supplemented with 20 μM ATP (Sigma Aldrich) and kept at room temperature in the dark for 60 minutes before running on a cell imager. The FDSS 7000EX (Hamamatsu) was used to capture Ca^++ traces for a span of 3 minutes from cells treated with 11 point dose of compound in triplicate in order to generate dose response curves in agonist mode. All compounds were serially diluted in DMSO then prepared in Assay Buffer for Ca^++ flux studies. The dose response curves were generated from the average of triplicate wells obtained from each data point and used a non-linear regression of four parameter dose response algorithm. The Percent Activity (PA) was measured to EC100 of Carbachol.

[2] = molecular target: T2, Cloned human M1 receptor (CHRM1) stably expressed in HEK293 cells (Homo sapiens, UniProt P11229); experiment: CHRM1 Ca++ Flux Assay (agonist mode, FDSS 7000EX); assay type: cell-based; details: for M1 FDSS PA: Percent Activity; for pEC50: geometric mean if tested more than once
T2 construct: expressed in transfected cells; host or cells: HEK293
T2 sequence (P11229 1-460): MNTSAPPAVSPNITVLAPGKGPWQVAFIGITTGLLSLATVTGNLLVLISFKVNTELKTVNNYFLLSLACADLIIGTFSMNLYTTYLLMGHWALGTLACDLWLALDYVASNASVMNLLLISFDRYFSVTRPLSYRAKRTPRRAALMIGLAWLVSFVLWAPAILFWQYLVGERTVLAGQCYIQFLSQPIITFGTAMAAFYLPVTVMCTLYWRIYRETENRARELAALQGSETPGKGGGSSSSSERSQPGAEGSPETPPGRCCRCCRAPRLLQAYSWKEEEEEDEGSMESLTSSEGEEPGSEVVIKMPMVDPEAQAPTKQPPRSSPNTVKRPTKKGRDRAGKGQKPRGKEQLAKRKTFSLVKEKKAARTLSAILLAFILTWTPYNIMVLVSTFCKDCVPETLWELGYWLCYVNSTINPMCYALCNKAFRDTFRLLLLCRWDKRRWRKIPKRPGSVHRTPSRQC
Protocol: as §1
Cloned human M1 receptor (CHRM1) was stably expressed in HEK293 cells and were grown and maintained in a monolayer culture with DMEM/High Glucose (Life Technologies) supplemented with 10% Fetal Bovine Serum, 1× Pen-Strep, and 0.5 mg/mL Geneticin in a humidified atmosphere (5% CO2) at 37° C. The cultures were grown to 90% confluency in T150 flasks (Corning) and washed with 1×DPBS and lifted with 0.05% Trypsin (Life Technologies). The cells were then spun (1K rpm, 3 minutes) and frozen using Recovery Cell Culture Freezing Media (Gibco Technologies). Cells were stored in liquid nitrogen and thawed a day before the assay.
Prior to the day of the assay, stable HEK293 M1 cells were thawed and plated on 384 well black walled clear bottom TC treated plates (Greiner Cat #781091) at 25K cells/well with DMEM/High Glucose supplemented with 10% FBS (Hyclone) Pen-Strep (Life Technologies) and kept overnight in a humidified atmosphere (5% CO2) at 37° C. The following day, cells were loaded with 20 uL Ca^++ dye (BD Biosciences) using Loading Buffer (HBSS +Ca/+Mg, 20 mM HEPES) and placed back in cell incubator for a minimum of 1 hour. The dye was replaced with 45 μL Assay Buffer (HBSS −Ca/−Mg, 20 mM HEPES) and kept at room temperature prior to running on cell imager. Compounds were prepared in Assay Buffer and 5 uL was added to the cells. The FDSS 7000EX (Hamamatsu) was used to acquire Ca++ traces for 3 minutes from cells treated with 11 point dose in triplicate in order to generate dose response curves in agonist mode. All compounds were serially diluted in DMSO then prepared in Assay Buffer for Ca^++ flux studies. The dose response curves were generated from the average of triplicate wells obtained from each data point and used a non-linear regression of four parameter dose response algorithm. The Percent Activity (PA) was measured to EC100 of Carbachol.

Compound | M4 FDSS PA ([1]; Percent Activity) [%] | pEC50 [1] | M1 FDSS PA [2] [%] | pEC50 [2] | Emax ([1]; Percent Activity, read-out: M4 FDSS PA) [%] | Emax ([2]; HEK293, Percent Activity, read-out: M1 FDSS PA) [%] | M4 FDSS PA ([1]; Percent Activity, citrate salt) [%] | pEC50 ([1]; citrate salt)
Cc1nnc(COc2ccccc2C2CCN([C@@H]3CCC4(C3)CN(C(=O)C3(F)CC3)C4)CC2)o1 (single isomer, unassigned) [Example 7Y, (R)-(1-fluorocyclopropyl)(6-(4-(2-((5-methyl-1,3,4-oxadiazol-2-yl)methoxy)phenyl)piperidin-1-yl)-2-azaspiro[3.4]octan-2-yl)methanone or (S)-(1-fluorocyclopropyl)(6-(4-(2-((5-methyl-1,3,4-oxadiazol-2-yl)methoxy)phenyl)piperidin-1-yl)-2-azaspiro[3.4]octan-2-yl)methanone] | 49 | 7.66 | 67 | 6.61 |  |  |  | 
COc1ccccc1C1CCN([C@@H]2CCC3(C2)CN(c2cccnc2)C3)CC1 [Example 5K, (R)-6-(4-(2-methoxyphenyl)piperidin-1-yl)-2-(pyridin-3-yl)-2-azaspiro[3.4]octane] |  | 8.05 |  | 6.55 | 64 | 54 |  | 
O=C(C1COC1)N1CC2(CC[C@H](N3CCC(c4ccccc4OC(F)F)CC3)C2)C1.O=C(O)CC(O)(CC(=O)O)C(=O)O (single isomer, unassigned) [Example 8E, (S)-(6-(4-(2-(difluoromethoxy)phenyl)piperidin-1-yl)-2-azaspiro[3.4]octan-2-yl)(oxetan-3-yl)methanone or (R)-(6-(4-(2-(difluoromethoxy)phenyl)piperidin-1-yl)-2-azaspiro[3.4]octan-2-yl)(oxetan-3-yl)methanone citrate salt] |  |  |  |  |  |  | 61 | 8.70
CC(C)(O)CCOc1ccccc1C1CCN([C@@H]2CCC3(C2)CN(C(=O)C2(F)CC2)C3)CC1 (single isomer, unassigned) [Example 7BB, (R)-(1-fluorocyclopropyl)(6-(4-(2-(3-hydroxy-3-methylbutoxy)phenyl)piperidin-1-yl)-2-azaspiro[3.4]octan-2-yl)methanone or (S)-(1-fluorocyclopropyl)(6-(4-(2-(3-hydroxy-3-methylbutoxy)phenyl)piperidin-1-yl)-2-azaspiro[3.4]octan-2-yl)methanone] | 38 | 8.70 | 55 | 7.89 |  |  |  | 
O=C(C1COC1)N1CC2(CC[C@H](N3CCC(c4ccccc4OC(F)F)CC3)C2)C1.O=C(O)CC(O)(CC(=O)O)C(=O)O (single isomer, unassigned) [Example 8F, (S)-(6-(4-(2-(difluoromethoxy)phenyl)piperidin-1-yl)-2-azaspiro[3.4]octan-2-yl)(oxetan-3-yl)methanone or (R)-(6-(4-(2-(difluoromethoxy)phenyl)piperidin-1-yl)-2-azaspiro[3.4]octan-2-yl)(oxetan-3-yl)methanone citrate salt] |  |  |  |  |  |  | 10 | 5.96

Further lines, with some results ahead:

M4 FDSS PA ([1]; Percent Activity) [%] | pEC50 [1] | M1 FDSS PA [2] [%] | pEC50 [2] | Emax ([1]; Percent Activity, read-out: M4 FDSS PA) [%] | Emax ([2]; HEK293, Percent Activity, read-out: M1 FDSS PA) [%] | Compound | M4 FDSS PA ([1]; Percent Activity, citrate salt) [%] | pEC50 ([1]; citrate salt)
0 | < 4.60 | 0 | < 4.60 |  |  | O=C(N1CC2(CC[C@@H](N3CCC(c4ccccc4C4(O)CCOCC4)CC3)C2)C1)C1(F)CC1 (single isomer, unassigned) [Example 9H, (R)-(1-fluorocyclopropyl)(6-(4-(2-(4-hydroxytetrahydro-2H-pyran-4-yl)phenyl)piperidin-1-yl)-2-azaspiro[3.4]octan-2-yl)methanone or (S)-(1-fluorocyclopropyl)(6-(4-(2-(4-hydroxytetrahydro-2H-pyran-4-yl)phenyl)piperidin-1-yl)-2-azaspiro[3.4]octan-2-yl)methanone] |  | 
43 | 7.12 | 23 | 5.75 |  |  | O=C(N1CC2(CC[C@@H](N3CCC(c4cc(F)ccc4OC4CCOCC4)CC3)C2)C1)C1(F)CC1 (single isomer, unassigned) [Example 9D, (R)-(6-(4-(5-fluoro-2-((tetrahydro-2H-pyran-4-yl)oxy)phenyl)piperidin-1-yl)-2-azaspiro[3.4]octan-2-yl)(1-fluorocyclopropyl)methanone or (S)-(6-(4-(5-fluoro-2-((tetrahydro-2H-pyran-4-yl)oxy)phenyl)piperidin-1-yl)-2-azaspiro[3.4]octan-2-yl)(1-fluorocyclopropyl)methanone] |  | 
67 | 7.96 | 77 | 7.31 |  |  | FC(F)(F)Oc1ccccc1C1CCN([C@@H]2CCC3(C2)CN(c2nncs2)C3)CC1 (single isomer, unassigned) [Example 10M, (R)-2-(6-(4-(2-(trifluoromethoxy)phenyl)piperidin-1-yl)-2-azaspiro[3.4]octan-2-yl)-1,3,4-thiadiazole or (S)-2-(6-(4-(2-(trifluoromethoxy)phenyl)piperidin-1-yl)-2-azaspiro[3.4]octan-2-yl)-1,3,4-thiadiazole] |  | 
50 | 8.05 | 77 | 6.68 |  |  | Cc1nc(COc2ccccc2C2CCN([C@@H]3CCC4(C3)CN(C(=O)C3(F)CC3)C4)CC2)no1 (single isomer, unassigned) [Example 7Z, (R)-(1-fluorocyclopropyl)(6-(4-(2-((5-methyl-1,2,4-oxadiazol-3-yl)methoxy)phenyl)piperidin-1-yl)-2-azaspiro[3.4]octan-2-yl)methanone or (S)-(1-fluorocyclopropyl)(6-(4-(2-((5-methyl-1,2,4-oxadiazol-3-yl)methoxy)phenyl)piperidin-1-yl)-2-azaspiro[3.4]octan-2-yl)methanone] |  | 
